Results from patent publication US6686381B2, “Thiazole derivatives” (Hoffmann-La Roche Inc., priority 2002, dated 2004).

Molecular target: T1, mouse NPY5-receptor (mNPY5) (Mus musculus, UniProt O70342)
T1 construct: The full-length cDNA encoding the mouse NPY5 (mNPY5) receptor was amplified from mouse brain cDNA; expressed in transfected cells; membranes used
T1 sequence (O70342 1-466): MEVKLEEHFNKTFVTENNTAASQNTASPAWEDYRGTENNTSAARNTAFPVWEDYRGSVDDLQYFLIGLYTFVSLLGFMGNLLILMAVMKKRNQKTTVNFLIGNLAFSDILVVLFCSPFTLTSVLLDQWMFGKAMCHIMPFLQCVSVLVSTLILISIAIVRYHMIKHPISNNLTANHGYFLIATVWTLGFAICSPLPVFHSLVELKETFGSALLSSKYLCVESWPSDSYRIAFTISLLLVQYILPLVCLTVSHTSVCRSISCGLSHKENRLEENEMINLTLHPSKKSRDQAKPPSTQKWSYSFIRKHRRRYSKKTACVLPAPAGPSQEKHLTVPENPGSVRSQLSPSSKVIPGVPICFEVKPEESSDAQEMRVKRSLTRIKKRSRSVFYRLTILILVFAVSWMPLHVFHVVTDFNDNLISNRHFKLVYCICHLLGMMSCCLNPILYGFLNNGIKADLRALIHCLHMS
Assay: Radioligand competition binding
Conditions: membranes of HEK293 cells expressing recombinant mNPY5; 100 pM [125I]labelled peptide YY; 1 h at 22° C.
Description: Cloning of Mouse NPY5 Receptor cDNAs:
The full-length cDNA encoding the mouse NPY5 (mNPY5) receptor was amplified from mouse brain cDNA using specific primers, designed based on the published sequence, and Pfu DNA-Polymerase. The amplification product was subcloned into the mammalian expression vector pcDNA3 using EcoRI and XhoI restriction sites. Positive clones were sequenced and one clone, encoding the published sequence (see Borowsky, B., et al., Molecular biology and pharmacology of multiple NPY Y5 receptor species homologs, Regul. Pept. (1998) 75-76:45-53) was selected for generation of stable cell clones.
Human embryonic kidney 293 (HEK293) cells were transfected with 10 μg mNPY5 DNA using the lipofectamine reagent (Gibco BRL) according to the manufacturer's instruction. Two days after transfection, geneticin selection (1 mg/ml) was initiated and several stable clones were isolated. One clone was further used for pharmacological characterization.
Radioligand Competition Binding:
Human embryonic kidney 293 cells (HEK293), expressing recombinant mouse NPY5-receptor (mNPY5) were broken by three freeze/thawing cycles in hypotonic Tris buffer (5 mM, pH 7.4, 1 mM MgCl2), homogenized and centrifuged at 72,000×g for 15 min. […] Protein was determined according to the method of Lowry using bovine serum albumine (BSA) as a standard. […]

IC50 [nM] | Structure (SMILES)
5.4 | O=C(c1ccccn1)c1cnc(NCCCNS(=O)(=O)c2ccccc2F)s1 [Example 1, 2-Fluoro-N-{3-[5-(pyridine-2-carbonyl)-thiazol-2-ylamino]-propyl}-benzenesulfonamide]
6 | COc1ccc(C)cc1S(=O)(=O)NCCCNc1nc(C(=O)c2ccccc2C)cs1 [Example 140, 2-Methoxy-5-methyl-N-{3-[4-(2-methyl-benzoyl)-thiazol-2-ylamino]-propyl}-benzenesulfonamide]
